According to ChEMBL document CHEMBL1129646, “Structure-activity relationships study of two series of leukotriene B4 antagonists: novel indolyl and naphthyl compounds substituted with a 2-[methyl(2-phenethyl)amino]-2-oxoethyl side chain” (J Med Chem, 1996):

How the values were obtained:
Leukotriene B4 receptor = Leukotriene B4 receptor (Homo sapiens, UniProt Q9NPC1+Q15722); assay: LTB4 receptor binding from radioligand binding assay using human intact neutrophils PMN
[1] = LTB4 receptor binding from radioligand binding assay using guinea pig spleen cell membrane
[2] = biological target: T1, Leukotriene B4 receptor 1 (Homo sapiens, UniProt Q15722); assay: Compound was evaluated for LTB4 receptor binding, obtained from radioligand binding assay using human intact neutrophils PMN
[3] = biological target: T1, Leukotriene B4 receptor 1; assay: Compound was evaluated for LTB4 receptor binding obtained from radioligand binding assay using human intact neutrophils PMN; No activity

T1 sequence (Q15722 whole entry): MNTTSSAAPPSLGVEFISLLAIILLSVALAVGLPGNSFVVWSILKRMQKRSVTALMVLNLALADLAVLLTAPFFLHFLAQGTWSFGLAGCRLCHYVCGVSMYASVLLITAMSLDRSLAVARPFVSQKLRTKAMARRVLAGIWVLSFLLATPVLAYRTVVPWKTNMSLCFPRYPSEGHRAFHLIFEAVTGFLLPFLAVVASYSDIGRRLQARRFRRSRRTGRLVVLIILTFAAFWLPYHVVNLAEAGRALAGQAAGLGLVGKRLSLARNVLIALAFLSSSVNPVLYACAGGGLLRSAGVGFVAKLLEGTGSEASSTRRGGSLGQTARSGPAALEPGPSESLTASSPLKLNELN

| SMILES | IC50 (Leukotriene B4 receptor) [nM] | IC50 [1] [nM] | IC50 [2] [nM] | IC50 [3] |
| --- | --- | --- | --- | --- |
| CN(CCc1ccccc1)C(=O)Cc1cc(C(=O)O)c(OCc2ccccc2)c2ccccc12 | 80 | 6.5 | – | – |
| CN(CCc1ccccc1)C(=O)Cn1cc(/C=C/C(=O)O)c2ccc(OCc3ccccc3)cc21 | – | > 300 | – | – |
| CN(CCc1ccccc1)C(=O)Cc1cc(CCC(=O)O)cc2c(-c3ccccc3)cccc12 | 40 | 3.5 | – | – |
| C/C(=C\c1cn(CC(=O)N(C)CCc2ccccc2)c2ccc(OCc3ccccc3)cc12)C(=O)O | 11 | 5 | – | – |
| CN(CCc1ccccc1)C(=O)Cn1cc(/C=C/C=C/C(=O)O)c2cc(OCc3ccccc3)ccc21 | 19 | 8 | – | – |
| CN(CCc1ccccc1)C(=O)Cc1cc(CCC(=O)O)cc2c(OCc3ccccc3)cccc12 | – | 10 | – | – |
| CC/C(=C\c1cn(CC(=O)N(C)CCc2ccccc2)c2ccc(OCc3ccccc3)cc12)C(=O)O | 7.6 | 1.3 | – | – |
| CN(CCc1ccccc1)C(=O)Cn1cc(/C=C/C2N=NN=N2)c2cc(OCc3ccccc3)ccc21 | 19 | 4.5 | – | – |
| CN(CCc1ccccc1)C(=O)Cc1cc(C(=O)O)cc2cc(OCc3ccccc3)ccc12 | 7.75 | 1.07 | – | – |
| CN(CCc1ccccc1)C(=O)Cn1cc(CC(=O)O)c2cc(OCc3ccccc3)ccc21 | – | 30 | – | – |
| CN(CCc1ccccc1)C(=O)Cn1cc(/C=C/C(=O)O)c2cc(OCc3ccccc3)ccc21 | 53 | 4.3 | – | – |
| CN(CCc1ccccc1)C(=O)Cn1c(C(=O)O)cc2cc(OCc3ccccc3)ccc21 | 11.2 | 2.5 | – | – |
| CN(CCc1ccccc1)C(=O)Cc1cc(CCCCC(=O)O)cc2c(OCc3ccccc3)cccc12 | 100 | 2.8 | – | – |
| Cc1c(C(=O)O)c2cc(OCc3ccccc3)ccc2n1CC(=O)N(C)CCc1ccccc1 | 90 | 5 | – | – |
| CC/C(=C\c1cc(CC(=O)N(C)CCc2ccccc2)c2cccc(OCc3ccccc3)c2c1)C(=O)O | 50 | 0.8 | – | – |
| CN(CCc1ccccc1)C(=O)Cc1cc(/C=C/C(=O)O)cc2c(Oc3ccccc3)cccc12 | 20 | 2 | – | – |
| CN(CCc1ccccc1)C(=O)Cc1cc(/C=C/C(=O)O)cc2c(-c3ccccc3)cccc12 | 50 | 1 | – | – |
| CN(O)C(=O)c1cc(CC(=O)N(C)CCc2ccccc2)c2cccc(OCc3ccccc3)c2c1 | – | – | 60 | – |
| CN(CCc1ccccc1)C(=O)Cc1cc(/C=C/C(=O)O)cc2c(OCc3ccccc3)cccc12 | 3.55 | 0.58 | – | – |

| SMILES | IC50 (Leukotriene B4 receptor) [nM] | IC50 [1] [nM] | IC50 [2] [nM] | IC50 [3] |
| --- | --- | --- | --- | --- |
| CN(CCc1ccccc1)C(=O)Cc1cc(C(=O)O)cc2c(-c3ccccc3)cccc12 | 8.25 | 0.45 | – | – |
| CN(CCc1ccccc1)C(=O)Cn1cc(CCC(=O)O)c2cc(OCc3ccccc3)ccc21 | – | 40 | – | – |
| CN(CCc1ccccc1)C(=O)Cn1cc(C(C(=O)O)c2ccccc2)c2c(OCc3ccccc3)cccc21 (stereo not drawn) | 19 | 2.5 | – | – |
| CCCCCOc1cccc2c(CC(=O)N(C)CCc3ccccc3)cc(C(=O)O)cc12 | 9 | 0.6 | – | – |
| CC/C(=C\c1cn(CC(=O)N(C)CCc2ccccc2)c2cccc(OCc3ccccc3)c12)C(=O)O | 35 | 1.5 | – | – |
| C/C(=C\c1cn(CC(=O)N(C)CCc2ccccc2)c2cccc(OCc3ccccc3)c12)C(=O)O | 24.5 | 2.33 | – | – |
| CN(CCc1ccccc1)C(=O)Cn1cc(/C=C/C(=O)O)c2cccc(OCc3ccccc3)c21 | – | > 300 | – | Not Active |
| CN(CCc1ccccc1)C(=O)Cc1cc(CCC(=O)O)cc2c(Oc3ccccc3)cccc12 | 250 | 20 | – | – |
| CN(CCc1ccccc1)C(=O)Cn1cc(C(=O)O)c2cc(OCc3ccccc3)ccc21 | 26.3 | 1.5 | – | – |
| CN(CCc1ccccc1)C(=O)Cc1cc(/C=C/C2N=NN=N2)cc2c(OCc3ccccc3)cccc12 | 5 | 3 | – | – |
| COc1cccc2c(CC(=O)N(C)CCc3ccccc3)cc(C(=O)O)cc12 | 700 | > 30 | – | – |
| CN(CCc1ccccc1)C(=O)Cc1cc(/C=C/C=C/C(=O)O)cc2c(OCc3ccccc3)cccc12 | 8 | 1 | – | – |
| CN(CCc1ccccc1)C(=O)Cn1cc(C=O)c2cc(OCc3ccccc3)ccc21 | – | – | > 300 | – |
| CN(CCc1ccccc1)C(=O)Cn1cc(C(=O)c2cccc(C(=O)O)c2)c2cc(OCc3ccccc3)ccc21 | 8.5 | 12 | – | – |
| CN(CCc1ccccc1)C(=O)Cn1cc(/C=C/C(=O)O)c2c(OCc3ccccc3)cccc21 | 16.5 | 1 | – | – |
| CN(CCc1ccccc1)C(=O)Cn1cc(/C=C/C=C/C(=O)O)c2c(OCc3ccccc3)cccc21 | 15 | 1.5 | – | – |
| CN(CCc1ccccc1)C(=O)Cn1cc(C(=O)O)c2c(OCc3ccccc3)cccc21 | 20.3 | 1.45 | – | – |
| CN(CCc1ccccc1)C(=O)Cc1cc(C(=O)O)cc2c(Oc3ccccc3)cccc12 | 25 | 1.5 | – | – |
